From ChEMBL document CHEMBL1142095, “Diminished ciprofloxacin-induced chondrotoxicity by supplementation with magnesium and vitamin E in immature rats” (Antimicrob Agents Chemother, 2007)

Test system: Rattus norvegicus
Experiment: Reduction in incidence of 600 mg/kg, sc ciprofloxacin-induced cartilage lesions in vitamin E-enriched diet fed immature Wistar rat after 10 days
Type: functional, organism-based
Set-up: dose 600 mg/kg; scale not given: the % may be the effect or the level left
Conditions: at 600 mg/kg

For VITAMIN E, the Activity was 41%.
